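Tested at 5 concentrations; 48 h exposure; 96-well plates; endpoints linearly interpolated, else capped at highest concentration. GI50 = concentration required for 50% inhibition of growth. TGI is the concentration that stops growth completely.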

Holding throughout (test): NCI-60 cell line screen, 48 h
For assay [1], the system named is CCRF-CEM leukemia.
Assay [2] has as its system HOP-92 NSCLC.
Assay [3] has as its system KM12 colon.
Assay [4] relates to LOX IMVI melanoma.
The test system of assay [5] is M14 melanoma.
Assay [6] concerns MCF7 breast.
Assay [7] concerns MDA-MB-231 breast.
Assay [8] relates to OVCAR-5 ovarian.
Assay [9] has as its system RXF 393 renal.
Assay [10] has as its system SR leukemia.

Consider `C=C1CCC2C3(C)COC(c4ccccc4Br)OC3CCC2(C)C1C/C=C1/C(=O)OCC1OC(C)=O` (stereo not drawn), for which the GI50 was 381 nM in assay [1]; 1360 nM in assay [2]; 1.55 µM in [3]; 422 nM in assay [4]; 1530 nM in [5]; 620 nM in assay [6]. Also, the GI50 in [7] is 1.47 µM; in assay [8] it was 1850 nM; in assay [9], 1540 nM; in assay [10], 215 nM. Moreover, the TGI in [1] was 3.96 µM; in [2], 3.02 µM; in assay [3] it was 3.12 µM; in assay [4], 0.826 µM; in assay [5], 2.86 µM; in assay [6], 2 µM. The TGI was found to be 3.16 µM in [7], 3.28 µM in [8], 2.96 µM in assay [9] and 0.706 µM in assay [10].
Consider `CCCc1cc(=O)n2c(C(=O)Nc3ccccc3OC)c(C(=O)Nc3ccc(F)cc3)sc2n1`, for which the GI50 in assay [1] was 24700 nM; in [2] it was 1430 nM; in assay [3] it was 49.8 µM; in assay [4] it was 5180 nM; in [5], 23300 nM; in assay [6], 14600 nM. The GI50 in [7] is 3.29 µM; in [8], 69300 nM; in assay [9], 5140 nM; in [10], 4570 nM. Further, the TGI in assay [1] was 59 µM; in assay [2] it was 4.73 µM; in assay [3], more than 160 µM; in assay [4], 38.1 µM; in [5], 110 µM; in assay [6], 115 µM. For the same compound, the TGI was 11.2 µM in assay [7], more than 160 µM in assay [8], 12.1 µM in assay [9] and 25.3 µM in assay [10].
For the compound `CC1(C)CC[C@]2(C(=O)N3CCOCC3)CC[C@]3(C)C(=CC[C@@H]4[C@@]5(C)C/C(=C/c6ccncc6)C(=O)C(C)(C)[C@@H]5CC[C@]43C)[C@@H]2C1`, the GI50 in assay [1] is 871 nM; in assay [2], 34.7 nM; in assay [3], 2.7 µM; in [4] it was 1240 nM; in assay [5], 1410 nM; in [6], 509 nM. Besides, the GI50 is 3.06 µM in assay [7], 2270 nM in assay [8], 1220 nM in assay [9] and 365 nM in assay [10]. In addition, the TGI in assay [1] is more than 100 µM; in assay [2] it was 11.6 µM; in assay [3], more than 100 µM; in assay [4] it was 2.72 µM; in [5], 5.23 µM; in [6], 15.3 µM. In addition, the TGI was 41.1 µM in assay [7], 9.45 µM in assay [8], 3.03 µM in assay [9] and more than 100 µM in [10].
On to `CSC1(SC2=NCCN2)SC2(NCCN2)S1`, for which the TGI in [1] is 26.1 µM; in [2], 28.4 µM; in assay [3], 5.37 µM; in assay [4] it was 25.7 µM; in [5], 44.3 µM; in assay [6], 12.8 µM. The TGI is 38.6 µM in assay [7], 39.6 µM in [8], 20.4 µM in assay [9] and 37.7 µM in assay [10].
`OCC1OC(n2cnc3c(=S)nc[nH]c32)C(O)C1O` (stereo not drawn): the GI50 in assay [1] was 3350 nM; in assay [2], 698 nM; in assay [3] it was 7.46 µM; in [4] it was 705 nM; in [5] it was 1150 nM; in assay [6], 1820 nM. For the same compound, the GI50 in [7] was 14.1 µM; in assay [8], 3790 nM; in assay [9], more than 100000 nM. Further, the TGI is more than 2500 µM in assay [1]; more than 1780 µM in assay [2]; more than 2500 µM in assay [3]; more than 2500 µM in assay [4]; more than 2500 µM in assay [5]; more than 2500 µM in assay [6]. For the same compound, the TGI in [7], in assay [8], in [9] and in assay [10] was more than 2500 µM throughout.
For the compound `O=C(CN1CCN(c2ccccc2)CC1)N1CCN(c2nnc(-c3ccc(Cl)cc3)c(-c3ccc(Cl)cc3)n2)CC1`, the GI50 was 8080 nM in assay [1]; 12100 nM in assay [2]; 5.4 µM in assay [3]; 11500 nM in assay [4]; 9990 nM in assay [5]; 3080 nM in [6]. The GI50 in assay [7] was 21.9 µM; in assay [8], more than 100000 nM; in [9] it was 9410 nM; in assay [10], 1700 nM. The TGI in assay [1] was more than 100 µM; in assay [2] it was 27.9 µM; in [3] it was more than 100 µM; in [4], 41.4 µM; in assay [5], more than 100 µM; in assay [6], 19.6 µM. Also, the TGI in assay [7] was more than 100 µM; in assay [8], more than 100 µM; in [9], 63.3 µM; in assay [10], 6.62 µM.
With `CC(C)c1ccc(Nc2nccc(-c3cnn4ncccc34)n2)cc1`, the GI50 in [1] was 703 nM; in assay [2], 503 nM; in assay [3] it was 0.201 µM; in assay [4], 209 nM; in assay [5], 688 nM; in assay [6], 65.3 nM. Besides, the GI50 is 0.726 µM in assay [7], 440 nM in assay [8], 280 nM in [9] and 234 nM in assay [10]. Further, the TGI is more than 20.5 µM in assay [1]; 1.59 µM in assay [2]; 1.83 µM in assay [3]; more than 7.75 µM in assay [4]; 2.48 µM in assay [5]; more than 17.9 µM in assay [7]. For the same compound, the TGI in assay [8] is more than 12.3 µM; in assay [9], 0.827 µM; in assay [10], more than 25 µM.

For the origin of these results see PubChem BioAssay (NCI).
